A short description of assay [1]: Cytotoxicity against human U-343MG cells. It is filed as functional, cell-based.
Assay [2] can be described thus: Induction of apoptosis in human U373 MG cells at 1 uM relative to control. It is filed as functional, U-373MG ATCC.
Assay [3] relates to U-87 MG. As to the kind of experiment: Antiproliferative activity against human U-87 MG cells assessed as reduction in cell viability incubated for 72 hrs by Presto-Blue cell viability assay. It is filed as functional, cell-based, U-87MG ATCC.
The subject of assay [4] is U-87 MG. As to the kind of experiment: Antitumor activity against human U-87 MG cells xenografted in mouse model assessed as reduction in tumor growth at 15 mg/kg, ip administered once daily for 5 days relative to control. It is filed as functional, U-87MG ATCC. Also on record: scale not given: the % may be the effect or the level left. The settings on record: time 5 day. Background: Xenograft models place foreign cells or tissue in a host animal.

Assay [5] has as its target T1, Dual specificity tyrosine-phosphorylation-regulated kinase 1A (Homo sapiens, UniProt Q13627). Description: Inhibition of DYRK1A (unknown origin) by TR-FRET assay. For orientation: TR-FRET usually uses a lanthanide donor and a delayed reading to cut background.
The subject of assay [6] is U-87 MG. Description: Antitumor activity against human U-87 MG cells xenografted in mouse model assessed as reduction in tumor growth at 60 mg/kg, ip administered once daily for 5 days relative to control. It is filed as functional, U-87MG ATCC. Also on record: scale not given: the % may be the effect or the level left. The settings on record: time 5 day.
The target of assay [7] is T1, Dual specificity tyrosine-phosphorylation-regulated kinase 1A. Description: Inhibition of DYRK1A (unknown origin) incubated for 2 hrs in presence of [gamma-33P]-ATP by radioactivity based assay.
Assay [8] concerns U-251. Description: Induction of apoptosis in human U-251MG cells assessed as increase in PARP cleavage at 12.5 to 100 uM incubated for 24 hrs by Western blot analysis. It is filed as functional. The settings on record: dose 12.5-100 µM. Background: Immunoblotting shows a protein as a band on a membrane.
Assay [9] concerns H4. Description: Antiproliferative activity against human H4 cells assessed as reduction in cell viability incubated for 72 hrs by Presto-Blue cell viability assay. It is filed as functional, cell-based. The settings on record: H4, 72 h.
In assay [10] the test system is U-251. Description: Cytotoxicity against human U-251MG cells assessed as reduction in cell growth measured for 48 hrs by MTT assay. It is filed as functional, cell-based. The conditions noted are these: U-251, 48 h.
Assay [11] concerns U-251. Description: Antitumor activity against human U-251MG cells xenografted in BALB/c nude mouse assessed as reduction in tumor growth at 4 mg/kg, ip administered once daily and measured after 28 days relative to control. It is filed as functional. The conditions noted are these: U-251, 672 h, time 28 day, read-out: TGI.
Assay [12] concerns U-87 MG. As to the kind of experiment: Cytotoxicity against human U-87 MG cells assessed as reduction in cell growth measured for 48 hrs by MTT assay. It is filed as functional, cell-based, U-87MG ATCC.
For assay [13], the system named is U-251. Description: Antitumor activity against human U-251MG cells xenografted in BALB/c nude mouse assessed as reduction in tumor growth at 8 mg/kg, ip administered once daily and measured after 28 days relative to control. The conditions noted are these: U-251, 672 h, time 28 day, read-out: TGI. It is filed as functional.
Assay [14] concerns U-87 MG. Description: Antiproliferative activity against human U-87 MG cells by MTT assay. It is filed as functional, cell-based, U-87MG ATCC.
Assay [15] deals with C6. As to the kind of experiment: Antiproliferative activity against rat C6 cells by MTT assay. It is filed as functional, cell-based.
The subject of assay [16] is U-87 MG. Description: Antiproliferative activity against human U-87 MG cells measured for 48 hrs by MTT assay. It is filed as functional, cell-based, U-87MG ATCC.
The subject of assay [17] is U-251. Description: Antiproliferative activity against human U-251MG cells. It is filed as functional, cell-based.
Assay [18] has as its system U-87 MG. As to the kind of experiment: Antiproliferative activity against human U-87-MG cells. It is filed as functional, cell-based, U-87MG ATCC.
For assay [19], the system named is U-251. Description: Growth inhibition of human U-251MG cells measured for 48 hrs by SRB assay. It is filed as functional.
Assay [20] concerns C6. Description: Cytotoxicity against rat C6 cells assessed as reduction in cell viability incubated for 48 hrs by trypan blue dye based assay. It is filed as functional. The conditions noted are these: C6, 48 h.
The subject of assay [21] is Hs 683. As to the kind of experiment: Cytotoxicity against human Hs 683 cells by MTT assay. It is filed as functional, cell-based.
The nature of assay [22]: Cytotoxicity against human U373 MG cells by MTT assay. It is filed as functional, cell-based, U-373MG ATCC.
Assay [23] is described as follows: Antiproliferative activity against human GSC#1 cells assessed as reduction in cell growth incubated for 72 hrs by MTS assay. It is filed as functional, cell-based. The settings on record: GSC#1, 72 h.
Assay [24] relates to U-87 MG. Description: Antiproliferative activity against human U-87 MG cells assessed as reduction in cell growth incubated for 72 hrs by MTS assay. It is filed as functional, cell-based, U-87MG ATCC.
Assay [25] concerns T98G. As to the kind of experiment: Antiproliferative activity against human T98G cells assessed as reduction in cell growth incubated for 72 hrs by MTS assay. It is filed as functional, cell-based.

This note sets out measurements from ChEMBL document CHEMBL6115010, “Targeting glioma with heteroaromatic alkaloids: A review of potential therapeutics” (Bioorg Med Chem, 2025).

With `C=C[C@H]1CN2CCc3c([nH]c4c([C@@H]5CCCN5C)c(O)ccc34)[C@@H]2C[C@@H]1C[C@H]1c2[nH]c3ccccc3c2CCN1C`, the IC50 (usually the midpoint of a concentration-inhibition curve) in [1] was ~1 µM. Also, the Activity in assay [2] is reported as 80%.

`Cc1nccc2c1[nH]c1cc(O)ccc12`: the IC50 in assay [3] was 19.1 µM; in [5], 0.07 µM; in [7], 0.016 µM; in assay [9] it was 10.9 µM. Further, the Activity in assay [4] came out at 28.2%; in [6] it was 38.1%; in [8], 486%.

Consider `c1ccc2c(c1)[nH]c1c2cc[n+]2cc3c(cc12)CCCC3`, for which the IC50 in assay [10] is 4.98 µM; in assay [12], 4.71 µM. Besides, the inhibition in vivo at 4 mg/kg in assay [11] amounted to 49.5%. Moreover, the inhibition in vivo at 8 mg/kg in assay [13] was 58.9%.

Regarding `CN1c2ccccc2C(=O)N2CCc3c([nH]c4ccccc34)[C@H]21`, the results for the IC50 in [14], in [15] and in assay [16] were 3.7 µM, 4.3 µM and 5.21 µM, respectively.

On to `C[C@@H](O)c1cc2ccncc2c(=O)[nH]1`, for which the IC50 in [17] stood at 13.4 µM; in [18] it was 7.9 µM.

`C/C=C1/CN2C3C[C@H]1[C@H](CO)[C@@H]2Cc1c3n(C)c2ccccc12`: in assay [19], the GI50 (usually the concentration at which growth is held to half of that of the control) came to 9.5 µM.

On to `COc1cc(C2(O)C(=O)N=C(N)N2C)ccc1O` (stereo not given), for which the IC50 in assay [20] is 155 µM.

With `CC(C)[C@@]12NC(=O)[C@@H](Cc3c1[nH]c1ccccc31)n1c2nc2ccccc2c1=O`, the IC50 in assay [21] is 50 µM; in assay [22], 44 µM.

On to `CC[C@]12C=CC(CC(C)=O)N3CC[C@]4(C(=C(C(=O)OC)C1)Nc1ccccc14)[C@@H]32` (stereo not given in full), for which the IC50 in assay [23] is 1.3 µM; in assay [24], 1.7 µM; in [25] it was 4.3 µM.
